Measurements: ChEMBL document CHEMBL1671839 (ACS Med Chem Lett, 2011)
Blank lines part the entries; values can stand above or below the compound they belong to.

Key:
in vivo [1] = details: Wistar, rat, po, 10 mg/kg
in vivo [2] = details: Wistar, rat, iv, 1 mg/kg
Rattus norvegicus = organism: Rattus norvegicus; details: in vivo, iv, 1 mg/kg
in vivo [3] = details: Wistar, rat, po, 10 mg/kg; remark: listed apart in the source
in vivo [4] = details: Wistar, rat, iv, 1 mg/kg; remark: listed apart in the source
[5] = Cmax in Beagle dog at 1 mg/kg, po; format: ADME, organism-based, Canis lupus familiaris; design: dose 1 mg/kg, route oral; details: in vivo
[6] = Plasma clearance in cynomolgus monkey at 0.5 mg/kg, iv; format: ADME, organism-based, Macaca fascicularis; design: dose 0.5 mg/kg, route intravenous
in vitro [7] = details: rat, liver microsomes
[8] = Half life in cynomolgus monkey at 0.5 mg/kg, iv; format: ADME, organism-based, Macaca fascicularis; design: dose 0.5 mg/kg, route intravenous; details: in vivo
in vitro [9] = details: human, liver microsomes
[10] = Plasma clearance in Beagle dog at 1 mg/kg, iv; format: ADME, organism-based, Canis lupus familiaris; design: dose 1 mg/kg, route intravenous
in vivo [11] = details: Wistar, rat, plasma, iv, 1 mg/kg
[12] = Oral bioavailability in cynomolgus monkey at 1 mg/kg; format: ADME, organism-based, Macaca fascicularis; details: in vivo
[13] = AUC in cynomolgus monkey at 0.5 mg/kg, iv; format: ADME, organism-based, Macaca fascicularis; design: dose 0.5 mg/kg, route intravenous; details: plasma
in vivo [14] = details: Wistar, rat, po, 10 mg/kg; remark: listed apart in the source
[15] = Tmax in BALB/c mouse at 10 mg/kg, po; format: ADME, organism-based; design: dose 10 mg/kg, route oral; details: in vivo
in vivo [16] = details: Wistar, rat, plasma, iv, 1 mg/kg; remark: listed apart in the source
[17] = Oral bioavailability in Beagle dog at 1 mg/kg; format: ADME, organism-based, Canis lupus familiaris; details: in vivo
[18] = Half life in Beagle dog at 1 mg/kg, iv; format: ADME, organism-based, Canis lupus familiaris; design: dose 1 mg/kg, route intravenous; details: in vivo
[19] = Volume of distribution at steady state in Beagle dog at 1 mg/kg, iv; format: ADME, organism-based, Canis lupus familiaris; design: dose 1 mg/kg, route intravenous; details: in vivo, read-out: Vdss
[20] = Volume of distribution at steady state in cynomolgus monkey at 0.5 mg/kg, iv; format: ADME, organism-based, Macaca fascicularis; design: dose 0.5 mg/kg, route intravenous; details: in vivo, read-out: Vdss
[21] = AUC in Beagle dog at 1 mg/kg, iv; format: ADME, organism-based, Canis lupus familiaris; design: dose 1 mg/kg, route intravenous; details: plasma
[22] = Tmax in cynomolgus monkey at 1 mg/kg, po; format: ADME, organism-based, Macaca fascicularis; design: dose 1 mg/kg, route oral; details: in vivo
[23] = Terminal phase volume of distribution […] in Beagle dog at 1 mg/kg, iv; format: ADME, organism-based, Canis lupus familiaris; design: dose 1 mg/kg, route intravenous; details: in vivo, read-out: Vbeta
[24] = Cmax in cynomolgus monkey at 1 mg/kg, po; format: ADME, organism-based, Macaca fascicularis; design: dose 1 mg/kg, route oral; details: in vivo
[25] = Cmax in BALB/c mouse at 10 mg/kg, po; format: ADME, organism-based; design: dose 10 mg/kg, route oral; details: in vivo
[26] = Terminal phase volume of distribution […] in cynomolgus monkey at 0.5 mg/kg, iv; format: ADME, organism-based, Macaca fascicularis; design: dose 0.5 mg/kg, route intravenous; details: in vivo, read-out: Vbeta
[27] = Tmax in Beagle dog at 1 mg/kg, po; format: ADME, organism-based, Canis lupus familiaris; design: dose 1 mg/kg, route oral; details: in vivo

Compound: CC(=O)Nc1cnc(-c2ccncc2)c(-c2ccco2)n1
- bioavailability (in vivo [1]): 93%
- Vd (in vivo [2]): 0.8 L/kg
- AUC (Rattus norvegicus): 751000 ng·h/mL
- Tmax (in vivo [3]): 1.1 h
- half-life (in vivo [4]): 0.4 h

- Cmax [5]: 820 ng/mL
- clearance [6]: 3.4 mL/min/kg
- metabolised at 0.5 h, 5 µM (in vitro [7]): 13%
- bioavailability (in vivo [1]): 100%
- half-life [8]: 3.8 h
- metabolised at 0.5 h, 5 µM (in vitro [9]): 5%
- Vd (in vivo [2]): 1.2 L/kg
- clearance [10]: 1.7 mL/min/kg
- clearance (in vivo [11]): 18.3 mL/min/kg
- bioavailability [12]: 100%
- AUC [13]: 3400 ng·h/mL
- Tmax (in vivo [3]): 0.25 h
- Cmax (in vivo [14]): 7110 ng/mL
- Tmax [15]: 0.25 h
- AUC (in vivo [16]): 920 ng·h/mL
- bioavailability [17]: 98%
- half-life [18]: 8.6 h
- half-life (in vivo [4]): 0.8 h
- Vd [19]: 0.8 L/kg
- Vd [20]: 0.4 L/kg
- AUC [21]: 13600 ng·h/mL
- Tmax [22]: 3 h
- Vd [23]: 0.9 L/kg
- Cmax [24]: 5900 ng/mL
- Cmax [25]: 17400 ng/mL
- Vd [26]: 0.8 L/kg
- Tmax [27]: 2 h
Compound: O=C(Nc1cnc(-c2ccncc2F)c(-c2cccnc2)n1)C1CC1 [LAS101057]
